Like-named read-outs stand apart in the source and are kept apart here.
Experiments:
mice = conditions: both, mouse, in vivo
Protocol: (§1) It was confirmed that the compound of the formula (I) or a salt and/or hydrate thereof has sufficiently low toxicity and is sufficiently safe for using it as a medicament. For example, as the acute toxicity of pranlukast hydrate, its minimum lethal dose was 2,000 mg/kg or more (oral or subcutaneous administration), or 30 mg/kg or more (intravenous injection) in mice and rats (both males and females).

rats = conditions: both, rat, in vivo
Protocol: as §1

[1] = test system: intractable sinusitis patients; test: Effect of pranlukast hydrate on intractable sinusitis (clinical, oral administration); type: in vivo, human; conditions: 450 mg/day oral
Protocol: Effect of Pranlukast Hydrate on Intractable Sinusitis
Pranlukast hydrate was orally administered to intractable sinusitis patients (34 persons, average age 54.4 years) at a daily dose of 450 mg (112.5 mg/capsule, 2 capsules per 1 time, twice a day (after every breakfast and supper), every day administration). On the 2 weeks, 4 weeks, 6 weeks and 8 weeks after the administration, 1) improving degree of the nasal mucosa swelling, 2) improving degree of the properties of nasal flow, 3) improving degree of the amount of nasal flow, 4) improving degree of the postnasal discharge, 5) improving degree of the nasal obstruction, 6) improving degree of the nasal flow (frequency of blowing nose) and 7) improving degree of the X-ray shadow of each patient were judged (however, parameters in respective weeks are not constant).

[2] = test system: Normal human paranasal sinus mucosa; test: Inhibitory effect on the reduction of ciliary movement in paranasal sinus mucosa induced by LTs; type: cell-based; conditions: pranlukast hydrate 1 μM, FIG. 1
Source text: Inhibitory Effect of Pranlukast Hydrate on the Reduction of Ciliary Movement in Paranasal Sinus Mucosa Induced by LTs
1) Culturing of Paranasal Sinus Mucosa
Normal human paranasal sinus mucosa obtained at the time of surgical operation of facial trauma or the like was used on the agreement of the patient. The collected paranasal sinus mucosa was thoroughly washed with a culture medium RPMI 1640 (Gibco Life Technologies), cut into 4 mm×4 mm species and then subjected to tissue culture in a culturing chamber of 35 mm×10 mm using RPMI 1640 containing 10% FCS (fetal calf serum). In order to remove mucus and cellular debris, the culture medium was exchanged every other day.
2) Preparation of Test Solutions […]
When a test solution was added to the mucosal tissue, culture medium in the chamber was removed and mucosal tissue was washed with RPMI 1640 and then the test solution (1 ml) was injected. As a control, the ciliary activity was measured in case of injecting only RPMI 1640 into the chamber. By defining the ciliary activity measured just before injection of each test solution (0 minute) as the reference value (100), the ciliary activity measured after injection of each test solution was expressed as percentage (%) of the reference value. […]

O=C(Nc1cccc2c(=O)cc(-c3nnn[nH]3)oc12)c1ccc(OCCCCc2ccccc2)cc1 [pranlukast hydrate, 4-oxo-8-[4-(4-phenylbutoxy)benzoylamino]-2-(tetrazol-5-yl)4H-1-benzopyran·½ hydrate]
minimum lethal dose (mice; iv): ≥ 30 mg/kg | minimum lethal dose (mice; po): ≥ 2,000 mg/kg | minimum lethal dose (mice; sc): ≥ 2,000 mg/kg | minimum lethal dose (rats; iv): ≥ 30 mg/kg | minimum lethal dose (rats; po): ≥ 2,000 mg/kg | minimum lethal dose (rats; sc): ≥ 2,000 mg/kg | Effective ratio, improving degree of the amount of nasal flow ([1]; on the 2nd week): 52% | Effective ratio, improving degree of the nasal flow (frequency of blowing nose) ([1]; on the 2nd week): 34% | Effective ratio, improving degree of the nasal mucosa swelling ([1]; on the 2nd week): 32% | Effective ratio, improving degree of the nasal obstruction ([1]; on the 2nd week): 19% | Effective ratio, improving degree of the postnasal discharge ([1]; on the 2nd week): 39% | Effective ratio, improving degree of the properties of nasal flow ([1]; on the 2nd week): 33% | Effective ratio, improving degree of the amount of nasal flow ([1]; on the 4th week): 55% | Effective ratio, improving degree of the nasal flow (frequency of blowing nose) ([1]; on the 4th week): 52% | Effective ratio, improving degree of the nasal mucosa swelling ([1]; on the 4th week): 29% | Effective ratio, improving degree of the nasal obstruction ([1]; on the 4th week): 21% | Effective ratio, improving degree of the postnasal discharge ([1]; on the 4th week): 38% | Effective ratio, improving degree of the properties of nasal flow ([1]; on the 4th week): 48% | Effective ratio, improving degree of the amount of nasal flow ([1]; on the 6th week): 68% | Effective ratio, improving degree of the nasal flow (frequency of blowing nose) ([1]; on the 6th week): 65% | Effective ratio, improving degree of the nasal mucosa swelling ([1]; on the 6th week): 43% | Effective ratio, improving degree of the nasal obstruction ([1]; on the 6th week): 35% | Effective ratio, improving degree of the postnasal discharge ([1]; on the 6th week): 39% | Effective ratio, improving degree of the properties of nasal flow ([1]; on the 6th week): 52% | Effective ratio, improving degree of the X-ray shadow ([1]; on the 8th week): 83% | Effective ratio, improving degree of the amount of nasal flow ([1]; on the 8th week): 65% | Effective ratio, improving degree of the nasal flow (frequency of blowing nose) ([1]; on the 8th week): 60% | Effective ratio, improving degree of the nasal mucosa swelling ([1]; on the 8th week): 40% | Effective ratio, improving degree of the nasal obstruction ([1]; on the 8th week): 29% | Effective ratio, improving degree of the postnasal discharge ([1]; on the 8th week): 62% | Effective ratio, improving degree of the properties of nasal flow ([1]; on the 8th week): 53% | overall clinical effect on subjective symptoms and objective findings of intractable sinusitis ([1]; summary of Tables 1 to 7): has clinical effects on sinusitis | inhibition of reduction of paranasal sinus mucosa ciliary activity induced by LTC4 ([2]; LTC4 0.1 μM, ciliary activity after 6 hours): has the activity to inhibit reduction of paranasal sinus mucosa ciliary activity | inhibition of reduction of paranasal sinus mucosa ciliary activity induced by LTD4 ([2]; LTD4 0.1 μM, ciliary activity after 4 hours): has the activity to inhibit reduction of paranasal sinus mucosa ciliary activity

Reference: patent US7252835B2, “Agent for preventing and/or treating sinusitis” (Ono Pharmaceutical Co., Ltd., priority 1998, dated 2007)
